The source made the active and inactive calls.
Key:
[1] = target: Ephrin type-A receptor 4 (Mus musculus, UniProt Q03137); assay: EphA4 ligand-binding antagonists – biochemical, colorimetric, mouse EphA4, primary screen (AID 689); format: functional
[2] = target: FAD-linked sulfhydryl oxidase ALR (Homo sapiens, UniProt P55789); assay: ALR-catalysed DTT oxidation blockers – biochemical, H2O2 detection, luminescence, cherry-pick, dose response (AID 493248)
[3] = intracellular Trypanosoma cruzi inhibitors in host cells – cell-based, plate reader, cherry-pick samples, set 3, dose response (AID 651818); format: functional;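 also: compounds incubated with infected cells for about four days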
[4] = target: Cytochrome P450 2C19 (Homo sapiens, UniProt P33261); assay: Cytochrome panel assay with activity outcomes. Panel member name: p450-cyp2c19 Compounds with AC50 equal or less than 10 uM are considered active; format: functional; settings: read-out: AC50
[5] = target: T1, Histone-lysine N-methyltransferase NSD2 (Homo sapiens, UniProt O96028); format: biochemical
T1 sequence (O96028 whole entry): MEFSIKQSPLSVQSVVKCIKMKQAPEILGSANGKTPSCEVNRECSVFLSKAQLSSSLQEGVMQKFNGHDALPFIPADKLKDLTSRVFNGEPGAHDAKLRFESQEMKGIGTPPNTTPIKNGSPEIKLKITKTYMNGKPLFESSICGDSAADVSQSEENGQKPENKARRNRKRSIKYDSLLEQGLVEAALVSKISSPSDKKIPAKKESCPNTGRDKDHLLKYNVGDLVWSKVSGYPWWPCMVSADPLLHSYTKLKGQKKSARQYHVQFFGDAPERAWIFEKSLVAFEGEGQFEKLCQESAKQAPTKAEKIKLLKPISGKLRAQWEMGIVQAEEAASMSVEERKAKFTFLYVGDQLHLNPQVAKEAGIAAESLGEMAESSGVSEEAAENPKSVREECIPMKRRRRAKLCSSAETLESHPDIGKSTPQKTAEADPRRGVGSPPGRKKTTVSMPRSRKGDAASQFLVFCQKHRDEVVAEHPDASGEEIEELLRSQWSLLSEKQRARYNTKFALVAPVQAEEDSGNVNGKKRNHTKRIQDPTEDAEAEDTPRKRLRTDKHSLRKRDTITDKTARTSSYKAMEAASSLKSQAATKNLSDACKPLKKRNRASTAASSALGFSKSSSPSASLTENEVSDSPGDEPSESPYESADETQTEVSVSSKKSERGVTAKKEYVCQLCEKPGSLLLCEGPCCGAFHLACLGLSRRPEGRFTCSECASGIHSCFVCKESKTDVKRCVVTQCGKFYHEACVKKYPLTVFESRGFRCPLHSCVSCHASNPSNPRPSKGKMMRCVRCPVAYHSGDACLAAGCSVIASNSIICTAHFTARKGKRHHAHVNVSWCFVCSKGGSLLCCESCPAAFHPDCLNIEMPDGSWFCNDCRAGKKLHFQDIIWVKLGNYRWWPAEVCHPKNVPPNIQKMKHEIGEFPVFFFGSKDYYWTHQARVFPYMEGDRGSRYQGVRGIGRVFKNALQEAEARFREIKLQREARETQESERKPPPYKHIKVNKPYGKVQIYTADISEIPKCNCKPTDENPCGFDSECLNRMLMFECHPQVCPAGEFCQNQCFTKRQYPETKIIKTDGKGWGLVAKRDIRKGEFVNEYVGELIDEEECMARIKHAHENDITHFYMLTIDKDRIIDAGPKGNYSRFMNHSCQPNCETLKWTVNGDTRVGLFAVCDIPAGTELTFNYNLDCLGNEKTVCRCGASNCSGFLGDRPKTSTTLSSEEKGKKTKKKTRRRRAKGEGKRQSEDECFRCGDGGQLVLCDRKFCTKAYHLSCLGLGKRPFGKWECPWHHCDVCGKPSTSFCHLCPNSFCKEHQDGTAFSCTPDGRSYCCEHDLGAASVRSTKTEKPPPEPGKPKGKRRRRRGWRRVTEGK

[6] = target: T2, Estrogen receptor beta (Homo sapiens, UniProt Q92731);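 also: recombinant ER-beta bound to coactivator SRC1 peptide in presence of estradiol agonist; inhibitors block coactivator peptide binding and lower the FRET signal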
[7] = target: T2, Estrogen receptor beta; assay: blockers of SRC-3 recruitment to ERβ – biochemical, ELISA, streptavidin-HRP readout, orthogonal assay, confirmation (AID 1060)
[8] = target: Eukaryotic translation initiation factor 4E (Mus musculus, UniProt P63073); assay: blockers of eIF4G binding by eIF4E – biochemical, TR-FRET, dose response (AID 855); format: functional;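 also: potency for disrupting eIF4E binding to eIF4GI seen as loss of FRET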
[9] = target: T3, Replicative DNA helicase DnaB (Mycobacterium tuberculosis, UniProt P9WMR3); assay: DnaB intein splicing inhibitors, dose response, biochemical, cell-free fluorescence (AID 449749); format: functional
T3 sequence (P9WMR3 whole entry): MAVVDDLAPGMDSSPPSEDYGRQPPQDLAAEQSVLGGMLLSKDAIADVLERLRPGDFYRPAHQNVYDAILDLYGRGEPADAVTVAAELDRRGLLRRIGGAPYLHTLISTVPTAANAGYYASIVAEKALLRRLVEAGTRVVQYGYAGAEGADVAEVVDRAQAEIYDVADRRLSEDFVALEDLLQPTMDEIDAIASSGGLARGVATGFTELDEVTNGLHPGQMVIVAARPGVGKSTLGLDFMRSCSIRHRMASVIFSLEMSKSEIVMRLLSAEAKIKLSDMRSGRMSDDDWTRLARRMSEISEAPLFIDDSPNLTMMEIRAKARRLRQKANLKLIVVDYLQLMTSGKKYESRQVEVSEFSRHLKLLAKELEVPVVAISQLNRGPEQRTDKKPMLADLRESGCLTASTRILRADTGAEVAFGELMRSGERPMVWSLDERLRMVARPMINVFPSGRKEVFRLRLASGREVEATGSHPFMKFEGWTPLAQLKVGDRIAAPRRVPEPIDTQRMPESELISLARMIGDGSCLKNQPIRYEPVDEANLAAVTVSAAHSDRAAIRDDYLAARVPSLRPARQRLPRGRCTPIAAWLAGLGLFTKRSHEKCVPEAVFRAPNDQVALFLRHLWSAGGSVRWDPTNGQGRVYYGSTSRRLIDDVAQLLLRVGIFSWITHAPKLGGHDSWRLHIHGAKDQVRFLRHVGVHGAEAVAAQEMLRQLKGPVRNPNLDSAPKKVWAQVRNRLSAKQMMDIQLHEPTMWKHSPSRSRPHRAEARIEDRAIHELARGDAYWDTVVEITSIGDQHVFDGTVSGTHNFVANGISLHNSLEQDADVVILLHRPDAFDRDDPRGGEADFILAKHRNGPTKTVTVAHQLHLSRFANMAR

[10] = target: T4, Protein RecA (Mycobacterium tuberculosis, UniProt P9WHJ3); assay: Fluorescence Cell-Free Homogeneous Dose Retest to Identify Inhibitors of RecA-Intein Splicing Activity. [Related pubchem assays (depositor defined):AID2097, AID2223, AID489010, AID492950]; format: functional
T4 sequence (P9WHJ3 whole entry): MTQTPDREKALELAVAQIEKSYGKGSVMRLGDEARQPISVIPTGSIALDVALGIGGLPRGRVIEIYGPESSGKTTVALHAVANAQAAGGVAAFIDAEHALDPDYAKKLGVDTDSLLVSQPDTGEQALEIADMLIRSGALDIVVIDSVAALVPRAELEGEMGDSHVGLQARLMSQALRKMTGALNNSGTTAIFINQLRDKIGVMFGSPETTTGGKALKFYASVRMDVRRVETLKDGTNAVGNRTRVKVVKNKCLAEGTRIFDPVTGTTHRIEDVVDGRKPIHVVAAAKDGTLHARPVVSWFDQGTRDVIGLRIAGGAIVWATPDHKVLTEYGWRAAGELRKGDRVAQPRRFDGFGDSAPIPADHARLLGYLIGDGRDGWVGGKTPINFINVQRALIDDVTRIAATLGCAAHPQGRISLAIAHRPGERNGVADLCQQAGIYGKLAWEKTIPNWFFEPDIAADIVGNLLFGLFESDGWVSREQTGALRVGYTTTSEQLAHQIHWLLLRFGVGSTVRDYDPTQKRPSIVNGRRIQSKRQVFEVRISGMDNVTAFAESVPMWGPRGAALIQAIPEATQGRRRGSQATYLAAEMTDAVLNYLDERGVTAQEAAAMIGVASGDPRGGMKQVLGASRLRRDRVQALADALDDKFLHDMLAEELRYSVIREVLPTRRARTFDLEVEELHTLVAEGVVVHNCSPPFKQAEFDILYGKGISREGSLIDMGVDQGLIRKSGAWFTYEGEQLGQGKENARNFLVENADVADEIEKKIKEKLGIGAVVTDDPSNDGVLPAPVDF

[11] = target: T5, Polyadenylate-binding protein 1 (Homo sapiens, UniProt P11940); assay: MLLE binding blockers, Cy5 peptide tracer – biochemical, fluorescence polarization, Cy5-PAM2 peptide, secondary, miRNA deadenylation inhibitor project, dose response (AID 602260); format: functional; settings: read-out: IC50_Mean
[12] = target: T5, Polyadenylate-binding protein 1; assay: MLLE domain peptide-binding blockers, IC50 – biochemical, fluorescence polarization, FITC-PAM2 peptide, dose response (AID 602259); format: functional; settings: read-out: IC50_Mean
[13] = blockers of HIV-1 envelope-mediated cell-cell fusion – cherry-pick, dose response (AID 652057); format: functional, cell-based
[14] = blockers of HIV-1 ZM109 envelope-driven cell-cell fusion – HeLa effector, CEM target cells, luciferase, cherry-pick, dose response (AID 652058); format: functional, cell-based;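 also: luciferase signal from HIV-1 Env mediated cell-cell fusion of effector and target cells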
[15] = off-target signal loss in HeLa-CEM21 co-culture – HeLa F-luc CTL cells, cherry-picked, counter-screen for HIV-1 Env fusion inhibitor project, dose response (AID 652040); format: functional, cell-based;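 also: potency for signal decrease marking cytotoxic or nonspecific inhibition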
[16] = HIV-1 AD8 envelope cell-cell fusion blockers – cherry-pick, dose response (AID 652062); format: functional, cell-based;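 also: luciferase signal from cell-cell fusion driven by HIV-1 clade B AD8 Env; potency is for inhibitors of fusion seen as a drop in luminescence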
[17] = target: Glyceraldehyde-3-phosphate dehydrogenase (Homo sapiens, UniProt P04406)
[18] = target: Prothrombin (Homo sapiens, UniProt P00734); assay: Thrombin 1536 HTS Dose Response Confirmation. [Related pubchem assays: 1046 (Thrombin 1536 HTS; hits were confirmed in this assay)]; format: functional
[19] = target: Cytochrome P450 2C9 (Homo sapiens, UniProt P11712)
[20] = target: Large T antigen (Simian virus 40, UniProt P03070); format: functional, Betapolyomavirus macacae;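 also: Confirmatory-stage PubChem screen for compounds that inhibit SV40 T antigen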
Large T antigen, sequence (P03070 whole entry): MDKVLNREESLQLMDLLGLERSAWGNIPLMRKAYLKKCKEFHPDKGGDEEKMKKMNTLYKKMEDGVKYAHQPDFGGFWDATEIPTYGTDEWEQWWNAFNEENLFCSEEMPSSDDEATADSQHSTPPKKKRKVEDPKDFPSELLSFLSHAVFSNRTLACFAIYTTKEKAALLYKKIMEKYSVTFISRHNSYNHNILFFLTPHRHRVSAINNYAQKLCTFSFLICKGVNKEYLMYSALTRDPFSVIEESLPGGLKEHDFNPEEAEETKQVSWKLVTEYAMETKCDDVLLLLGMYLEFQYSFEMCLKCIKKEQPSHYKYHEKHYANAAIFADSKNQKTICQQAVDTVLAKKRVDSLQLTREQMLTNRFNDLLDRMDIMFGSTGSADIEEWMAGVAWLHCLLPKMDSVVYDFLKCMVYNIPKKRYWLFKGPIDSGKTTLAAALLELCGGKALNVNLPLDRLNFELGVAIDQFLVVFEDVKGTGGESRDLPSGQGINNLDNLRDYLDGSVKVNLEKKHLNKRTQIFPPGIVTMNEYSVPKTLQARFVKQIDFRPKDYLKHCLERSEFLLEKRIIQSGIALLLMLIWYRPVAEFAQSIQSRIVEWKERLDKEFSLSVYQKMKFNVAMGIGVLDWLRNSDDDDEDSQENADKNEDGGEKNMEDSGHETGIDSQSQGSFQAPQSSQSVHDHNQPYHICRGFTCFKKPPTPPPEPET

T5 sequence (P11940 whole entry, the tested form may be a part): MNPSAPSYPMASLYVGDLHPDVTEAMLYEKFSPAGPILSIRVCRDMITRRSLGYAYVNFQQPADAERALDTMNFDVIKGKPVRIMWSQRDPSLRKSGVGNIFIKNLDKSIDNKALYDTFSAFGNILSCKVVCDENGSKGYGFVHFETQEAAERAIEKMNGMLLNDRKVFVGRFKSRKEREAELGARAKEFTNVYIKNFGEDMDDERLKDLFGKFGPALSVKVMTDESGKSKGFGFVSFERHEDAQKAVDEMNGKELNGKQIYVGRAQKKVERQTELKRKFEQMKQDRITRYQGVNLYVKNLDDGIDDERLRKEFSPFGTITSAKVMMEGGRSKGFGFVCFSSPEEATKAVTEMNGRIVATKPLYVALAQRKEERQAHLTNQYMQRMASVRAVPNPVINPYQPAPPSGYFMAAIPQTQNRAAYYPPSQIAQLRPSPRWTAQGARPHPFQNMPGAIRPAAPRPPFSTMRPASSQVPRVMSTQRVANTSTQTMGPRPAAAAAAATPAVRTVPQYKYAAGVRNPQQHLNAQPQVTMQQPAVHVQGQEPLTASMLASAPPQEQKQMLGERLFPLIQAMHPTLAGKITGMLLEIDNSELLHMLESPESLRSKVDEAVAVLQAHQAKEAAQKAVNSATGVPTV
T2 sequence (Q92731 whole entry): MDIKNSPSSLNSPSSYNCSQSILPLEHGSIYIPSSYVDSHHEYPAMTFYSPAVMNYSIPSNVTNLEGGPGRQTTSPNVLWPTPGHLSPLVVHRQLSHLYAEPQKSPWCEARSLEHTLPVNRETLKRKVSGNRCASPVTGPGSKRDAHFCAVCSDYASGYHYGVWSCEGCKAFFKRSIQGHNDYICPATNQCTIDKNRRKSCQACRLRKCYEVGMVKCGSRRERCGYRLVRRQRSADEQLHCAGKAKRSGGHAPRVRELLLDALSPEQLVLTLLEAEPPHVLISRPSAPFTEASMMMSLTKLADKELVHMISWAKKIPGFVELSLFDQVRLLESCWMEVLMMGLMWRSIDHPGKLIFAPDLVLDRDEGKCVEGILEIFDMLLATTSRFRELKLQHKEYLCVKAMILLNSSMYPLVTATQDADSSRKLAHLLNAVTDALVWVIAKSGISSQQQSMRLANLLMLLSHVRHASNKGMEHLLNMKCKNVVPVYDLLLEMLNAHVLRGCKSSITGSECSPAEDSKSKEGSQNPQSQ
Ephrin type-A receptor 4, sequence (Q03137 whole entry): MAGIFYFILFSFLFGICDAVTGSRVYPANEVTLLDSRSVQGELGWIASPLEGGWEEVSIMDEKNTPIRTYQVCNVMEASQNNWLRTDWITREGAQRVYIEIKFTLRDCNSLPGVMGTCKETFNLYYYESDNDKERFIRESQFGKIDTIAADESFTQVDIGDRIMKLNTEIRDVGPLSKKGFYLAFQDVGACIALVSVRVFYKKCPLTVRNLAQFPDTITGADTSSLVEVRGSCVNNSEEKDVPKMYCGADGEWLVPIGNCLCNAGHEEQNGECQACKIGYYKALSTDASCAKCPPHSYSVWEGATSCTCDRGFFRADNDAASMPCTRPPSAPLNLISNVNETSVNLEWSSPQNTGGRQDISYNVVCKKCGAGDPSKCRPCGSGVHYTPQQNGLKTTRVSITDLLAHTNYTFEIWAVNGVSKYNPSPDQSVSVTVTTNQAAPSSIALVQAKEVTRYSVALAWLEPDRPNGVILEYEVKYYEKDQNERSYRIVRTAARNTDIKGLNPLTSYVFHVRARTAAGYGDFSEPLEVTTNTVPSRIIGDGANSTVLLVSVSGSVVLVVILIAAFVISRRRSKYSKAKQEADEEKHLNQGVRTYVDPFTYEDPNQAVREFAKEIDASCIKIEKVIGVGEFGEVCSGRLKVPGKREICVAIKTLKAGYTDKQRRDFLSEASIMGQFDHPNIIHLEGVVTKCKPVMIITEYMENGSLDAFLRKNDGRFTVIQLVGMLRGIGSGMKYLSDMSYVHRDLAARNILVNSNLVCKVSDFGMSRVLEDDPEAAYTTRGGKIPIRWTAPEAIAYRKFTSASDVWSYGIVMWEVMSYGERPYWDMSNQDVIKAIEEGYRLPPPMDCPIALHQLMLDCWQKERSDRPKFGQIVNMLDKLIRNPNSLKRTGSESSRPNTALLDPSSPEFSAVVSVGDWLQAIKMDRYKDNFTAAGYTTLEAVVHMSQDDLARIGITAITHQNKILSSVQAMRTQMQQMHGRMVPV
Cytochrome P450 2C9, sequence (P11712 whole entry): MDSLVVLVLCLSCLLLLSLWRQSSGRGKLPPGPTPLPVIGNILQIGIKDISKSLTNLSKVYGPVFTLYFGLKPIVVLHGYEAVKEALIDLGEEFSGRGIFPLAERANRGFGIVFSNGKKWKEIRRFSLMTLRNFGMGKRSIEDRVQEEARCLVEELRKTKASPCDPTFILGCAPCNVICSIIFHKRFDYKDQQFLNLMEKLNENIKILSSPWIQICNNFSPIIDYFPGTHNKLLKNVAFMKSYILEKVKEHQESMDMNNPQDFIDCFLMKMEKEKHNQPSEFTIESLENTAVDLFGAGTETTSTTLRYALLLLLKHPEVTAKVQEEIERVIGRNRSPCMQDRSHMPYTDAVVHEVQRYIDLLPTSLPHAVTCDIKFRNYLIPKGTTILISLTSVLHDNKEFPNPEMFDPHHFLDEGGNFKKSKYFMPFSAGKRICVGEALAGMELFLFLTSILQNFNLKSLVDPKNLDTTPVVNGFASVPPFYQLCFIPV
Glyceraldehyde-3-phosphate dehydrogenase, sequence (P04406 whole entry): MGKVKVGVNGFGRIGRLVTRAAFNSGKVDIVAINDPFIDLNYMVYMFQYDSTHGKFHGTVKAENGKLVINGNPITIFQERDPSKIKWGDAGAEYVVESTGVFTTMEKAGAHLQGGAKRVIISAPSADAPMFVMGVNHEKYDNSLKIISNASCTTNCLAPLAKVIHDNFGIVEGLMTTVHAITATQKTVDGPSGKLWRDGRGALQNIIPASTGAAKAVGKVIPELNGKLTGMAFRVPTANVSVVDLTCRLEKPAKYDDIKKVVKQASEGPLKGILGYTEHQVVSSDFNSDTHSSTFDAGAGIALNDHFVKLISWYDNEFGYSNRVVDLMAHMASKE
FAD-linked sulfhydryl oxidase ALR, sequence (P55789 whole entry): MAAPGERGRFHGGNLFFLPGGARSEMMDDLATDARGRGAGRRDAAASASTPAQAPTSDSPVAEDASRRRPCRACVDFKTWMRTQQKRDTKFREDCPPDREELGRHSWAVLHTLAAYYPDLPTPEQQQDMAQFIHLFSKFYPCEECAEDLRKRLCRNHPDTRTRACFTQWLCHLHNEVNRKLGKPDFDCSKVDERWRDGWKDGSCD
Cytochrome P450 2C19, sequence (P33261 whole entry): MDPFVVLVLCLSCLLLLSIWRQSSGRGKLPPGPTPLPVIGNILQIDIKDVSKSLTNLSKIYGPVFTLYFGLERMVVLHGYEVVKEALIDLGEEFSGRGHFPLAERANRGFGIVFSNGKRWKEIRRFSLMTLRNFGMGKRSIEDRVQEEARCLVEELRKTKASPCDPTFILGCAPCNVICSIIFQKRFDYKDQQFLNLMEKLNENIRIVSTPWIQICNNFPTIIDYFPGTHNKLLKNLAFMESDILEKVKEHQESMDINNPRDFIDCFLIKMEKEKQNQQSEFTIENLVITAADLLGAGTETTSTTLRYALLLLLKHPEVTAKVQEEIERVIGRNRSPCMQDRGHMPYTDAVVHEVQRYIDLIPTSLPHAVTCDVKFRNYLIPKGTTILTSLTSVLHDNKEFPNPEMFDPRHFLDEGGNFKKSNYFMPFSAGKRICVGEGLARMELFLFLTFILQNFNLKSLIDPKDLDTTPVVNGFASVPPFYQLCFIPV
Eukaryotic translation initiation factor 4E, sequence (P63073 whole entry): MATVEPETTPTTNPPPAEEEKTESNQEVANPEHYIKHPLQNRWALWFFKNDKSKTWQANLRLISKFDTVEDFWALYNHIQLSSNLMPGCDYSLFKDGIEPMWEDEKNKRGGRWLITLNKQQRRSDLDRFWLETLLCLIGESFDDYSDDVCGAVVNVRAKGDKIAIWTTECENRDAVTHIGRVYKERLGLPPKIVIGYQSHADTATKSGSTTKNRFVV

## CCN(CCCNC(=O)CN(C)S(=O)(=O)c1cccc2nsnc12)c1cccc(C)c1
[1]
  IC50: > 100 µM (not active)
[2]
  AC50: 3.31 µM (active)

## COc1ccc(NC(=O)Nc2ccc3c(c2)CC(=O)N([C@H](C)CO)C[C@@H](C)[C@@H](CN(C)Cc2ccc(-c4ccccc4)cc2)O3)cc1
[3]
  AC50: 3.14 µM (active)

## CCN(CC)CCCN(Cc1cc2ccc(C)c(C)c2nc1O)C(=O)NC1CCCCC1
[4]
  AC50: 39.8 µM (inconclusive)
[5]
  AC50: > 20 µM (inactive)

## COc1cccc2cc3c(=O)n(-c4ccccc4)nc-3oc12
[6]
  IC50: 15.7 µM (active)
[7]
  IC50: > 50 µM (not active)

## CCc1nnc(NC(=O)Cc2ccc(OCc3c(C)noc3C)cc2)s1
[8]
  IC50: > 64 µM (inactive)

## Cc1ccc(SC(=O)c2c(C)noc2-c2cc(C)on2)cc1
[9]
  AC50: 6.38 µM (active)
[10]
  EC50: 8.74 µM (active)
[11]
  IC50: > 66 µM (inactive)
[12]
  IC50: > 66 µM (inactive)

## CC(C)(C)NC(=O)C(c1ccccc1)N(Cc1cccs1)C(=O)c1csnn1 (stereo not given)
[13]
  AC50: 6.9 µM (active)
[14]
  AC50: 5.72 µM (active)
[15]
  AC50: 38.5 µM (active)
[16]
  AC50: 8.36 µM (active)

## NS(=O)(=O)c1ccc(CCNC(=O)Cc2cccs2)cc1
[17]
  IC50: > 100 µM (not active)

## O=C(CSc1nnc(Cn2nnc(-c3ccccc3)n2)n1-c1ccccc1)Nc1ccc(F)cc1
[18]
  IC50: > 50 µM (not active)

## COc1ccc(-c2nn3cnnc3s2)cc1OC
[18]
  IC50: > 50 µM (not active)
[19]
  AC50: 1.41 µM (inconclusive)

## COc1ccc(S(=O)(=O)Nc2ccc3c(c2)CC(=O)N([C@H](C)CO)C[C@@H](C)[C@@H](CN(C)S(=O)(=O)c2ccc(Cl)cc2)O3)cc1
[3]
  AC50: 1.97 µM (active)

## CCSc1nnc(NC(=O)c2ccco2)s1
[18]
  IC50: > 50 µM (not active)

## COc1ccc(NC(=O)Nc2cccc3c2O[C@H](CN(C)Cc2ccc(C(=O)Nc4ccccc4N)cc2)[C@H](C)CN([C@@H](C)CO)C3=O)cc1
[3]
  AC50: 5.98 µM (active)

## O=C(NCc1ccccc1)c1nc(-c2cccs2)no1
[18]
  IC50: > 50 µM (not active)

## CC(=O)N(c1ccc2oc(=O)sc2c1)S(=O)(=O)c1ccccc1
[20]
  IC50: 30.3 µM (active)
[1]
  IC50: > 100 µM (not active)

## Cn1nccc1-c1cc(Cl)cc(Cl)c1O
[18]
  IC50: > 50 µM (not active)

## Cc1ccc(S(=O)(=O)Nc2cccc3c2O[C@@H](CN(C)Cc2ccc(C(=O)Nc4ccccc4N)cc2)[C@@H](C)CN([C@@H](C)CO)C3=O)cc1
[3]
  AC50: 2.17 µM (active)

## Cc1noc(C)c1NC(=O)Nc1cccc2c1O[C@H](CN(C)Cc1ccc(C(F)(F)F)cc1)[C@@H](C)CN([C@H](C)CO)C2=O
[3]
  AC50: 10.4 µM (active)

## Oc1ccc(/C=N/NC(=S)Nc2cccnc2)cc1
[20]
  IC50: 19.4 µM (active)
[11]
  IC50: > 66 µM (inactive)
[12]
  IC50: > 66 µM (inactive)

## O=C(C[C@H]1CC[C@@H](NC(=O)Nc2ccccc2F)[C@@H](CO)O1)NCc1ccc(Cl)cc1
[13]
  AC50: 5.2 µM (active)
[14]
  AC50: 5.31 µM (active)
[16]
  AC50: 18.8 µM (active)

Reference: ChEMBL document CHEMBL1201862, “PubChem BioAssay data set” (2004)
